Experimental data published in patent publication US10696689B2, “Somatostatin modulators and uses thereof” (CRINETICS PHARMACEUTICALS, INC., priority 2018, dated 2020).

Legend:
[1] = target: human SST2 receptor (SSTR2) (Homo sapiens (Human), UniProt P30874); assay: cAMP assay: inhibition of cAMP via human SST2 receptor in CHO-K1 cells; assay type: cell-based; conditions: CHO-K1 cells stably expressing human SSTR2, NKH477 stimulated
Description: (§1) General overview: All five SSTR subtypes are Gi coupled G-protein coupled receptors (GPCRs) that lead to decreases in intracellular cyclic AMP (cAMP) when activated by an agonist. Therefore, measurement of intracellular cAMP levels can be used to assess whether compounds of the invention are agonists of SSTR subtypes (John Kelly, Troy Stevens, W. Joseph Thompson, and Roland Seifert, Current Protocols in Pharmacology, 2005, 2.2.1-2.2). One example of an intracellular cAMP assay is described below.
(§2) Four days prior to the assay, 5,000 Chinese hamster ovary cells (CHO-K1, ATCC # CCL-61) stably expressing the human somatostatin receptor subtype 2 are plated in each well of a 96-well tissue culture-treated plate in Ham's F12 growth media (ThermoFisher #10-080-CM) supplemented with 10% donor bovine serum (Gemini Bio-Products #100-506), 100 U/mL penicillin; 100 ug/mL streptomycin; 2 mM L-glutamine (Gemini Bio-Products #400-110) and 0.2 mg/mL hygromycin B (GoldBio #31282-04-9). The cells are cultured at 37° C., 5% CO2 and 95% humidity. On the day of the assay, the media is aspirated and the cells are treated with 50 μL of 1.6 μM NKH477 (Sigma # N3290) plus various dilutions of compounds of the invention in assay buffer [1× Hank's Balanced Salt Solution (ThermoFisher # SH3058802), 0.5 mM HEPES pH 7.4, 0.1% bovine serum albumin, 0.2 mM 3-Isobutyl-1-methylxanthine (IBMX, VWR #200002-790)]. The cells are incubated for 20 minutes at 37° C. (the final concentration of the compounds of the invention are typically 0-10,000 nM). The cells are treated with 50 μL of lysis buffer (HRTF cAMP kit, Cisbio). The lysate is transferred to 384-well plates and cAMP detection and visualization antibodies are added and incubated for 1-24 hours at room temperature. The time-resolved fluorescent signal is read with a Tecan M1000Pro multiplate reader. The intracellular cAMP concentrations are calculated by regression to a standard curve and are plotted vs. the concentration of the compounds of the invention and the EC50 of the compounds are calculated using standard methods. All data manipulations are in GraphPad Prism v6.

[2] = test system: hSSTR2 vs. hSSTR4; assay: Selectivity for inhibition of cAMP via hSSTR2 vs. hSSTR4; assay type: cell-based, human
Description: as §1, §2

Chain of human SST2 receptor (SSTR2) (P30874 whole entry): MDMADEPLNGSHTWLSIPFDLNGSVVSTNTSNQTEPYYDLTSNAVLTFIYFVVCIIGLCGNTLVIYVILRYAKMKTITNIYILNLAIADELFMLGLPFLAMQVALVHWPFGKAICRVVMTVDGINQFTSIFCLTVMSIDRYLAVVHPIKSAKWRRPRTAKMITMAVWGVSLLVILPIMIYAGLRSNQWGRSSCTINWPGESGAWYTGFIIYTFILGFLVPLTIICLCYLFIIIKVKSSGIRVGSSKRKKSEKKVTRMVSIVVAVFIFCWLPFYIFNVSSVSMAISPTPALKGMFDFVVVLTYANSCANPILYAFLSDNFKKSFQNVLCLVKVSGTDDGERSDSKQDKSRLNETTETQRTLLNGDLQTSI

COc1cc(F)cc2[nH]c(-c3c(N)ncc(-c4cc(F)cc(Cl)c4)c3N3CC[C@@H]4OCCN[C@H]4C3)nc12 [Compound 3-17, 4-[(4αS,8αS)-octahydro-1H-pyrido[3,4-b][1,4]oxazin-6-yl]-5-(3-chloro-5-fluorophenyl)-3-(6-fluoro-4-methoxy-1H-1,3-benzodiazol-2-yl)pyridin-2-amine]
EC50 [1]: < 0.1 nM
hSST4/hSST2 (ratio) ([2]; Table C): c (c = between 2.5 and 15;)

CNc1ncc(-c2cc(F)cc(Cl)c2)c(N2CC[C@@H]3NCCO[C@H]3C2)c1-c1nc2c(OC)cc(F)cc2[nH]1 [Compound 3-13, 4-[(4αS,8αS)-octahydro-1H-pyrido[3,4-b][1,4]oxazin-6-yl]-5-(3-chloro-5-fluorophenyl)-3-(6-fluoro-4-methoxy-1H-1,3-benzodiazol-2-yl)-N-methylpyridin-2-amine]
EC50 [1]: 0.1 to 1 nM
hSST4/hSST2 (ratio) ([2]; Table C): a (a = above 50,)

COc1cc(F)cc2nc(-c3c(C#N)ncc(-c4cc(C)cc(F)c4)c3N3CCC(N)CC3)[nH]c12 [Compound 2-2, 4-(4-aminopiperidin-1-yl)-3-(6-fluoro-4-methoxy-1H-1,3-benzodiazol-2-yl)-5-(3-fluoro-5-methylphenyl)pyridine-2-carbonitrile]
EC50 [1]: 0.1 to 1 nM

COc1cc(C#N)cc2nc(-c3c(N(C)C)ncc(-c4cc(C)cc(F)c4)c3N3CCC(N)CC3)[nH]c12 [Compound 1-3, 2-[4-(4-aminopiperidin-1-yl)-2-(dimethylamino)-5-(3-fluoro-5-methylphenyl)pyridin-3-yl]-4-methoxy-1H-1,3-benzodiazole-6-carbonitrile]
EC50 [1]: ≥ 1 nM

COc1cc(F)cc2[nH]c(-c3c(N)ncc(-c4cccc(F)c4)c3N3CC[C@@H]4NCCO[C@H]4C3)nc12 [Compound 3-9, 4-[(4αS,8αS)-octahydro-1H-pyrido[3,4-b][1,4]oxazin-6-yl]-3-(6-fluoro-4-methoxy-1H-1,3-benzodiazol-2-yl)-5-(3-fluorophenyl)pyridin-2-amine]
EC50 [1]: 0.1 to 1 nM
hSST4/hSST2 (ratio) ([2]; Table C): c (c = between 2.5 and 15;)

COc1cc(C#N)cc2[nH]c(-c3c(N)ncc(-c4cc(F)cc(Cl)c4)c3N3CCC(N)CC3)nc12 [Compound 1-2, 2-[2-amino-4-(4-aminopiperidin-1-yl)-5-(3-chloro-5-fluorophenyl)pyridin-3-yl]-4-methoxy-1H-1,3-benzodiazole-6-carbonitrile]
EC50 [1]: 0.1 to 1 nM

COc1cc(C#N)cc2[nH]c(-c3c(N)ncc(-c4cc(C)cc(F)c4)c3N3CCC(N)CC3)nc12 [Compound 1-1, 2-[2-amino-4-(4-aminopiperidin-1-yl)-5-(3-fluoro-5-methylphenyl)pyridin-3-yl]-4-methoxy-1H-1,3-benzodiazole-6-carbonitrile]
EC50 [1]: < 0.1 nM
hSST4/hSST2 (ratio) ([2]; Table B): a (a = above 50,)

Cc1cc(F)cc(-c2cnc(N)c(-c3nc4c(F)cc(F)cc4[nH]3)c2N2CC[C@@H]3NCCO[C@H]3C2)c1 [Compound 3-1, 4-[(4αS,8αS)-octahydro-1H-pyrido[3,4-b][1,4]oxazin-6-yl]-3-(4,6-difluoro-1H-1,3-benzodiazol-2-yl)-5-(3-fluoro-5-methylphenyl)pyridin-2-amine]
EC50 [1]: < 0.1 nM

COC(=O)c1ncc(-c2cc(C)cc(F)c2)c(N2CCC(N)CC2)c1-c1nc2cc(F)cc(OC)c2[nH]1 [Compound 2-1, methyl 4-(4-aminopiperidin-1-yl)-3-(6-fluoro-4-methoxy-1H-1,3-benzodiazol-2-yl)-5-(3-fluoro-5-methylphenyl)pyridine-2-carboxylate]
EC50 [1]: 0.1 to 1 nM
hSST4/hSST2 (ratio) ([2]; Table B): d (d = between 1 and 2.5;)

COc1cc(F)cc2[nH]c(-c3c(N)ncc(-c4cc(C)cc(F)c4)c3N3CC[C@@H]4NCCO[C@H]4C3)nc12 [Compound 3-14, 4-[(4αS, 8αS)-octahydro-1H-pyrido[3,4-b][1,4]oxazin-6-yl]-3-(6-fluoro-4-methoxy-1H-1,3-benzodiazol-2-yl)-5-(3-fluoro-5-methylphenyl)pyridin-2-amine]
EC50 [1]: < 0.1 nM

COc1cc(F)cc(-c2cnc(N)c(-c3nc4c(F)cc(F)cc4[nH]3)c2N2CCC3OCCNC3C2)c1 (centres unmarked) [Compound 3-8, 4-[(4αS,8αS)-octahydro-1H-pyrido[3,4-b][1,4]oxazin-6-yl]-3-(4,6-difluoro-1H-1,3-benzodiazol-2-yl)-5-(3-fluoro-5-methoxyphenyl)pyridin-2-amine]
EC50 [1]: < 0.1 nM

CNc1ncc(-c2cccc(F)c2)c(N2CC[C@@H]3NCCO[C@H]3C2)c1-c1nc2c(OC)cc(C#N)cc2[nH]1 [Compound 3-12, 2-{4-[(4αS,8αS)-octahydro-1H-pyrido[3,4-b][1,4]oxazin-6-yl]-5-(3-fluorophenyl)-2-(methylamino)pyridin-3-yl}-4-methoxy-1H-1,3-benzodiazole-6-carbonitrile]
EC50 [1]: ≥ 1 nM
hSST4/hSST2 (ratio) ([2]; Table C): a (a = above 50,)

CNc1ncc(-c2cc(C)cc(F)c2)c(N2CCC3OCCNC3C2)c1-c1nc2c(OC)cc(F)cc2[nH]1 (centres unmarked) [Compound 3-15, 4-[(4αS,8αS)-octahydro-1H-pyrido[3,4-b][1,4]oxazin-6-yl]-3-(6-fluoro-4-methoxy-1H-1,3-benzodiazol-2-yl)-5-(3-fluoro-5-methylphenyl)-N-methylpyridin-2-amine]
EC50 [1]: < 0.1 nM

CNc1ncc(-c2cc(F)cc(F)c2)c(N2CC[C@@H]3NCCO[C@H]3C2)c1-c1nc2c(F)cc(F)cc2[nH]1 [Compound 3-6, 4-[(4αS,8αS)-octahydro-1H-pyrido[3,4-b][1,4]oxazin-6-yl]-3-(4,6-difluoro-1H-1,3-benzodiazol-2-yl)-5-(3,5-difluorophenyl)-N-methylpyridin-2-amine]
EC50 [1]: 0.1 to 1 nM

COc1cc(F)cc2nc(-c3c(C(N)=O)ncc(-c4cc(C)cc(F)c4)c3N3CCC(N)CC3)[nH]c12 [Compound 2-3, 4-(4-aminopiperidin-1-yl)-3-(6-fluoro-4-methoxy-1H-1,3-benzodiazol-2-yl)-5-(3-fluoro-5-methylphenyl)pyridine-2-carboxamide]
EC50 [1]: 0.1 to 1 nM

Nc1ncc(-c2cc(F)cc(F)c2)c(N2CCC3OCCNC3C2)c1-c1nc2c(F)cc(F)cc2[nH]1 (centres unmarked) [Compound 3-2, 4-[(4αS,8αS)-octahydro-1H-pyrido[3,4-b][1,4]oxazin-6-yl]-3-(4,6-difluoro-1H-1,3-benzodiazol-2-yl)-5-(3,5-difluorophenyl)pyridin-2-amine]
EC50 [1]: 0.1 to 1 nM

CNc1ncc(-c2cccc(F)c2)c(N2CC[C@@H]3NCCO[C@H]3C2)c1-c1nc2c(OC)cc(F)cc2[nH]1 [Compound 3-10, 4-[(4αS,8αS)-octahydro-1H-pyrido[3,4-b][1,4]oxazin-6-yl]-3-(6-fluoro-4-methoxy-1H-1,3-benzodiazol-2-yl)-5-(3-fluorophenyl)-N-methylpyridin-2-amine]
EC50 [1]: 0.1 to 1 nM
hSST4/hSST2 (ratio) ([2]; Table C): a (a = above 50,)

COc1cc(C#N)cc2[nH]c(-c3c(N)ncc(-c4cc(C)cc(F)c4)c3N3CC[C@@H]4NCCO[C@H]4C3)nc12 [Compound 3-16, 2-{4-[(4αS,8αS)-octahydro-1H-pyrido[3,4-b][1,4]oxazin-6-yl]-2-amino-5-(3-fluoro-5-methylphenyl)pyridin-3-yl}-4-methoxy-1H-1,3-benzodiazole-6-carbonitrile]
EC50 [1]: < 0.1 nM

Nc1ncc(-c2cc(F)cc(Cl)c2)c(N2CC[C@@H]3NCCO[C@H]3C2)c1-c1nc2c(F)cc(F)cc2[nH]1 [Compound 3-7, 4-[(4αS,8αS)-octahydro-1H-pyrido[3,4-b][1,4]oxazin-6-yl]-5-(3-chloro-5-fluorophenyl)-3-(4,6-difluoro-1H-1,3-benzodiazol-2-yl)pyridin-2-amine]
EC50 [1]: < 0.1 nM
